Data: patent US12139481B2, “Compositions comprising macrocycle derivatives incorporating bridged macrocycles and methods of producing and using same” (Southwestern Oklahoma State University, priority 2015, dated 2024)

How the values were obtained:
[1] = system: Staphylococcus aureus ATCC 29213; assay: Antibacterial broth dilution assay against S. aureus (modified CLSI); type: cell-based; details: for S. aureus IC50 / IC50: in vitro; for IC50: converted with molecular weight; for X more potent than ciprofloxacen: molar IC50 ratio versus ciprofloxacen
How it was run: (§1)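 Growth read by optical density at 530 nm, duplicate wells, 1% final DMSO. Staphylococcus spp.: Mueller-Hinton pH 7.3, 5.0×10^5 CFU/ml, 35 °C for 16-20 h; Candida spp.: RPMI/dextrose/glutamine/MOPS pH 6.0, 1.5×10^3 CFU/ml, 35 °C for 46-50 h. Reported values are 50% inhibition versus controls, no-growth MIC, and killing MFC/MBC.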

[2] = system: Cryptococcus neoformans ATCC 90113; assay: Antimicrobial microdilution assay against Cryptococcus neoformans (modified CLSI/NCCLS, optical density); type: cell-based; details: for X more potent than Amphotericin B: C. neoformans, ratio of molar IC50 to Amphotericin B
How it was run: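 Fungicidal endpoint taken by subculturing 5 μL from each clear well onto agar, MFC being the lowest concentration with no regrowth. Duplicate wells of serially diluted compound (20% DMSO/saline) in RPMI pH 6.0, read at 630 nm pre- and post-incubation, under modified CLSI methods. IC50 means 50% growth inhibition against controls.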

C. glabrata ATCC 90030 = assay: Antifungal broth dilution assay against C. glabrata (modified CLSI); type: cell-based, Candida glabrata; details: for C. glabrata IC50 / IC50: in vitro; for IC50: converted with molecular weight; for X more potent than Amphotericin B: molar IC50 ratio versus amphotericin B
How it was run: as §1

[3] = system: S. mansoni newly transformed schistosomula (NTS); assay: In vitro testing on Schistosoma mansoni newly transformed schistosomula (NTS), viability score; type: cell-based; details: for Effect at 72 h (%): NTS S. mansoni, 33 μM
How it was run: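 Mechanically transformed S. mansoni (Liberian strain) NTS, cultured overnight, exposed at 100 per well to compound (from 10 mM DMSO stock; ≤1% DMSO controls) at 37 °C, 5% CO2 for 72 h. Viability scored microscopically from 3 (normal activity, intact tegument) to 0 (dead, granulated).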

[4] = system: methicillin-resistant S. aureus ATCC 33591 (MRS); assay: Antibacterial broth dilution assay against MRSA (modified CLSI); type: cell-based, Staphylococcus aureus; details: for MRSa IC50 / IC50: in vitro; for IC50: converted with molecular weight; for X more potent than ciprofloxacen: molar IC50 ratio versus ciprofloxacen
Method: General Experimental Procedures. All organisms were obtained from the American Type Culture Collection (Manassas, VA) and include the fungi Candida albicans ATCC 90028, C. glabrata ATCC 90030, C. krusei ATCC 6258, and Cryptococcus neoformans ATCC 90113, and the bacteria Staphylococcus aureus ATCC 29213 and methicillin-resistant S. aureus ATCC 33591 (MRS). All organisms were tested using modified versions of the CLSI (formerly NCCLS) methods. For all organisms, optical density was used to monitor growth (NCCLS, Reference Method for Broth Dilution Antifungal Susceptibility Testing of Yeasts; Approved Standard M27-A2. National Committee on Clinical Laboratory Standards, 2002 22 (15); and NCCLS, Methods for Dilution Antimicrobial Susceptibility Tests for Bacteria that Grow Aerobically; Approved Standard, Seventh Edition M7-A7. National Committee on Clinical Laboratory Standards, 2006. 26(2)).
Samples (dissolved in DMSO) were serially-diluted in 20% DMSO/saline and transferred (10 μL) in duplicate to 96 well flat bottom microplates. Inocula were prepared by correcting the OD630 of microbe suspensions in incubation broth [RPMI 1640/0.2% dextrose/0.03% glutamine/MOPS @ pH 6.0 (Cellgro) for Candida spp., Sabouraud Dextrose for C. neoformans, and cation-adjusted Mueller-Hinton (Difco) @ pH 7.3 for Staphylococcus spp. to afford an assay volume of […] and final target inocula of: Candida spp. and C. neoformans: 1.5×10^3, and Staphylococcus spp.: 5.0×10^5 CFU/ml. Final sample test concentrations were 1/100th the DMSO stock concentration. […] All organisms were read at either 530 nm using the Biotek Powerwave XS plate reader (Bio-Tek Instruments, Vermont) prior to and after incubation: Candida spp. at 35° C. for 46-50 h, Staphylococcus spp. at 35° C. for 16-20 h, and C. neoformans at 35° C. for 70-74 h. IC50s (concentrations that afford 50% inhibition relative to controls) were calculated using XLfit 4.2 software (IDBS, Alameda, CA) using fit model 201. The MIC is defined as the lowest test concentration that allows no detectable growth. Minimum fungicidal or bactericidal concentrations were determined by removing 5 μl from each clear (or blue) well, transferring to fresh media, and incubating as previously mentioned. The MFC/MBC is defined as the lowest test concentration that kills the organism (allows no growth).
Primary Analysis. Samples were tested in duplicate at one test concentration (50 μg/mL), and percent inhibitions were calculated relative to blank and growth controls. Samples showing 50% inhibition in at least one test organism were selected for dose response (Secondary) studies.
Secondary Analysis. Extracts from the Primary Assay, and first-run pure compounds and column fractions were tested in duplicate at 3 test concentrations (5-fold dilutions). Samples dissolved to 20 mg/mL in DMSO were tested at 200, 40, and 8 μg/mL. Samples dissolved to 2 mg/mL in DMSO were tested at 20, 4, and 0.8 μg/mL.

[5] = system: Plasmodium falciparum W2 clone (Indochina, chloroquine-resistant); assay: In vitro antimalarial assay, chloroquine-resistant W2 clone; type: cell-based; details: W2 clone; for IC50: converted with molecular weight, read-out: P. falciparum W2 IC50; for X more potent than chloroquine: molar IC50 ratio versus chloroquine
How it was run: (§2)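 Parasites grown in type A human RBCs; assay run on infected cell suspension at 2% parasitemia and 2% hematocrit, in duplicate at several concentrations. IC50 taken from dose curves, per the Makler method, with DMSO as vehicle; Vero cytotoxicity run in parallel to derive a selectivity index.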

[6] = system: Plasmodium falciparum D6 clone (Sierra Leon, chloroquine-sensitive); assay: In vitro antimalarial assay, chloroquine-sensitive D6 clone; type: cell-based; details: D6 clone; for IC50: converted with molecular weight, read-out: P. falciparum D6 IC50; for X more potent than chloroquine: molar IC50 ratio versus chloroquine
How it was run: as §2

[7] = system: L. donovani promastigotes; assay: Antileishmanial Alamar Blue assay on promastigotes; type: cell-based, Leishmania donovani; details: for X more potent than Pentamidine: L. donovani, ratio of molar IC50 to Pentamidine; for L. donovani IC50 / IC50: promastigotes, 48 hours, Alamar Blue; for IC50: read-out: L. donavani IC50
How it was run: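 Alamar Blue fluorescence (544/590 nm) quantified growth after 48 hours at 26° C of compound-treated promastigotes. Parasites were seeded at 5×10^5/mL in RPMI 1640 plus 10% FCS; drug range 50-3.1 μg/mL, and IC50 derived by plotting percent growth against test concentration.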

S. mansoni adult worms = assay: In vitro tests on Schistosoma mansoni adult worms, viability score; type: cell-based; details: Schistosoma mansoni; adult worms, 72 hours post-exposure; read-out: IC50 [μM] Adults
Method: All assays were prepared in compliance with the laboratory SOP described herein above. Female NMRI mice (age 3 weeks, weight ca. 14 g) were purchased from Charles River (Sulzfeld) or Harlan Laboratories (Blackthorn, United Kingdom). The animals were allowed to adapt for 1 week under controlled conditions (22° C., 50% humidity, 12 hours light, and free access to water and rodent diet) before experimental handling. To obtain adult schistosomes, NMRI mice were infected subcutaneously with 80 to 100 cercariae. After 7 to 8 weeks, the mice were euthanized with CO2, and the worms were collected from the hepatic portal and mesenteric veins. Two pairs of adult worms were placed in each well of a 24-well plate with 2 ml culture medium and the test compound. […] Worms were kept in an incubator at 37° C. and 5% CO2 for up to 72 hours. After 72 hours, worm condition was microscopically evaluated using a scale from 3 (normal activity and no tegument alteration) to 0 (dead, completely granulated). Active compounds progressed into IC50 determination. […] For the in vitro drug sensitivity assays, all viability scores were averaged across replicates and normalized to the average viability scores of the control wells (Microsoft Office Excel 2010). […]

[8] = in vitro, C. neoformans ATCC 90113

CC(=O)[O-].CC(=O)[O-].CN1CCCN2CCN(CCCN(Cc3cccc(CN4CCCN5CCN(C)CCCN(CC5)CC4)c3)CC2)CC1.F[P-](F)(F)(F)(F)F.F[P-](F)(F)(F)(F)F.[Ni+2].[Ni+2] [CDG009, [Ni2(m-CB-Cyclams)(OAc)2][PF6]2]
S. aureus IC50 [1]: 6.27 µg/mL | IC50 [1]: 5.66 µM | X more potent than ciprofloxacen [1]: 0.05 | X more potent than Amphotericin B [2]: 0.07 | C. neoformans IC50 [2, 8]: 3.530 µg/mL | IC50 ([2]; in vitro, C. neoformans ATCC 90113, read-out: C. neoformans IC50 (mol/L)): 3.19 µM | C. glabrata IC50 (C. glabrata ATCC 90030): 5.150 µg/mL | IC50 (C. glabrata ATCC 90030): 4.65 µM | X more potent than Amphotericin B (C. glabrata ATCC 90030): 0.31 | Effect at 72 h (%) [3]: 0.00% | MRSa IC50 [4]: 5.410 µg/mL | IC50 [4]: 4.88 µM | X more potent than ciprofloxacen [4]: 0.04

CN1CCCN2CCN(CCCN(Cc3ccc(CN4CCCN5CCN(C)CCCN(CC5)CC4)cc3)CC2)CC1.[Cl-].[Cl-].[Cl-].[Cl-].[Mn+2].[Mn+2] [JGL16A]
S. aureus IC50 [1]: 8.090 µg/mL | IC50 [1]: 9.69 µM | X more potent than ciprofloxacen [1]: 0.03 | P. falciparum W2 IC50 [5]: 0.8002 µg/mL | IC50 [5]: 0.959 µM | X more potent than chloroquine [5]: 0.71 | P. falciparum D6 IC50 [6]: 0.7989 µg/mL | IC50 [6]: 0.957 µM | X more potent than chloroquine [6]: 0.04 | C. glabrata IC50 (C. glabrata ATCC 90030): 18.600 µg/mL | IC50 (C. glabrata ATCC 90030): 22.3 µM | X more potent than Amphotericin B (C. glabrata ATCC 90030): 0.06 | Effect at 72 h (%) [3]: 5.41% | MRSa IC50 [4]: 7.770 µg/mL | IC50 [4]: 9.31 µM | X more potent than ciprofloxacen [4]: 0.02

[Cl-].[Cl-].[Mn+2].c1ccc(CN2CCCN3CCN(CCCN(Cc4ccccc4)CC3)CC2)cc1 [NS06, Mn(Bn2Bcyclam)Cl2]
S. aureus IC50 [1]: 2.310 µg/mL | IC50 [1]: 4.34 µM | X more potent than ciprofloxacen [1]: 0.06 | X more potent than Pentamidine [7]: 0.13 | L. donovani IC50 [7]: 21.99 µg/mL | IC50 [7]: 41.3 µM | P. falciparum W2 IC50 [5]: 0.0674 µg/mL | IC50 [5]: 0.127 µM | X more potent than chloroquine [5]: 5.36 | P. falciparum D6 IC50 [6]: 0.0838 µg/mL | IC50 [6]: 0.157 µM | X more potent than chloroquine [6]: 0.23 | Effect at 72 h (%) [3]: 81.08% | MRSa IC50 [4]: 1.510 µg/mL | IC50 [4]: 2.84 µM | X more potent than ciprofloxacen [4]: 0.07

[Cl-].[Cl-].[Mn+2].c1ccc(CN2CCN3CCN(CC2)CCN(Cc2ccccc2)CC3)cc1 [NS29, Mn(Bn2Bcyclen)Cl2]
S. aureus IC50 [1]: 5.880 µg/mL | IC50 [1]: 11.7 µM | X more potent than ciprofloxacen [1]: 0.02 | X more potent than Pentamidine [7]: 0.35 | L. donovani IC50 [7]: 7.70 µg/mL | IC50 [7]: 15.3 µM | P. falciparum W2 IC50 [5]: 0.2747 µg/mL | IC50 [5]: 0.545 µM | X more potent than chloroquine [5]: 1.25 | P. falciparum D6 IC50 [6]: 0.1337 µg/mL | IC50 [6]: 0.265 µM | X more potent than chloroquine [6]: 0.14 | Effect at 72 h (%) [3]: 43.24% | MRSa IC50 [4]: 5.750 µg/mL | IC50 [4]: 11.4 µM | X more potent than ciprofloxacen [4]: 0.02

O=C(C1CCCCC1)N1CC(=O)N2CCc3ccccc3C2C1 (stereo not drawn) [Praziquantel, reference compound]
IC50 (S. mansoni adult worms): 0.1 µM | IC50 ([3]; Schistosoma mansoni, NTS, 72 hours post-incubation): 2.2 µM

CC(=O)[O-].CC(=O)[O-].CN1CCCN2CCN(CCCN(Cc3cccc(CN4CCCN5CCN(C)CCCN(CC5)CC4)c3)CC2)CC1.F[P-](F)(F)(F)(F)F.F[P-](F)(F)(F)(F)F.[Zn+2].[Zn+2] [RM51, [Zn2(m-CB-Cyclams)(OAc)2][PF6]2]
S. aureus IC50 [1]: 6.17 µg/mL | X more potent than ciprofloxacen [1]: 0.05 | X more potent than Amphotericin B [2]: 0.14 | C. neoformans IC50 [2, 8]: 1.850 µg/mL | X more potent than Pentamidine [7]: 0.30 | L. donovani IC50 [7]: 19.82 µg/mL | Effect at 72 h (%) [3]: 0.00% | MRSa IC50 [4]: 3.190 µg/mL | X more potent than ciprofloxacen [4]: 0.07
